In ChEMBL document CHEMBL1158612, “Anti HIV-1 agents 5: synthesis and anti-HIV-1 activity of some N-arylsulfonyl-3-acetylindoles in vitro” (Bioorg Med Chem Lett, 2010) one finds CC50, EC50 and selectivity ratio data, which are given here for 16 molecules.

Molecules are shown by their SMILES. ≈ marks a conversion by molar mass, not a printed value.

The nature of data set [1]: Cytotoxicity against human C8166 cells after 3 days by MTT assay. Type of data set: cell-based.
Data set [2] concerns Human immunodeficiency virus 1. The experiment in a line: Antiviral activity against HIV1 3B infected in C8166 cells assessed as inhibition of syncytia formation. The data set is classed as functional, organism-based. The note with it: Human immunodeficiency virus 1, 3B.
A short description of data set [3]: Therapeutic index, ratio of CC50 for human C8166 to EC50 for HIV1 3B.

As a reminder, the CC50 is the concentration giving 50% cytotoxicity. Higher therefore signals lower toxicity to the cells. As a reminder, the EC50 is the concentration at which the effect is half-maximal.

With `CCc1ccc(S(=O)(=O)n2cc(C(C)=O)c3cc(C#N)ccc32)cc1`, in data set [1], half-maximal cytotoxicity (CC50 at 72 h) was put at 113 µg/mL (≈ 320 µM). Also, the EC50 in data set [2] worked out at 30.5 µg/mL (≈ 86.5 µM). Besides, the selectivity ratio in data set [3] amounted to 3.7.

In the case of `CC(=O)c1cn(S(=O)(=O)c2ccccc2)c2ccc([N+](=O)[O-])cc12`, the CC50 at 72 h in data set [1] was greater than 200 µg/mL. Moreover, in data set [2], the EC50 amounted to 45.8 µg/mL (≈ 133 µM). In addition, the selectivity ratio in data set [3] (C8166 cells) is greater than 4.36.

In data set [1], `CC(=O)c1cn(S(=O)(=O)c2ccc(C)cc2)c2ccc([N+](=O)[O-])cc12` displayed a CC50 at 72 h greater than 200 µg/mL. Also, the EC50 in data set [2] was greater than 200 µg/mL.

Turning to `O=[N+]([O-])c1cccc(S(=O)(=O)n2ccc3ccccc32)c1`, in data set [1], the cytotoxic concentration (CC50) at 72 h was greater than 200 µg/mL. Besides, in data set [2], the EC50 was found to be 0.74 µg/mL (≈ 2.45 µM). Besides, the selectivity ratio in data set [3] (C8166 cells) was greater than 270.

In data set [1], `CC(=O)c1cn(S(=O)(=O)c2ccc(Br)cc2)c2ccc([N+](=O)[O-])cc12` had a CC50 at 72 h of 70.4 µg/mL (≈ 166 µM). In addition, the EC50 in data set [2] was 54.5 µg/mL (≈ 129 µM). Besides, the selectivity ratio in data set [3] (C8166 cells) amounted to 1.29.

In data set [1], `CC(=O)c1cn(S(=O)(=O)c2cccc([N+](=O)[O-])c2)c2ccccc12` returned a CC50 at 72 h of 164 µg/mL (≈ 477 µM). Moreover, the EC50 in data set [2] stood at 2.12 µg/mL (≈ 6.16 µM). In addition, the selectivity ratio in data set [3] (C8166 cells) was determined as 77.4.

With `CC(=O)c1cn(S(=O)(=O)c2ccc(Cl)c([N+](=O)[O-])c2)c2ccccc12`, the cytotoxic concentration (CC50) at 72 h in data set [1] amounted to 3.21 µg/mL (≈ 8.47 µM). Further, in data set [2], the EC50 turned out to be 3.43 µg/mL (≈ 9.06 µM). Besides, the selectivity ratio in data set [3] (C8166 cells) was 0.94.

`O=S(=O)(c1ccc(Br)cc1)n1ccc2ccccc21` displayed a CC50 at 72 h in data set [1] greater than 200 µg/mL. Besides, in data set [2], the half-maximal effective concentration (EC50) is 20.4 µg/mL (≈ 60.7 µM). In data set [3] (C8166 cells), the selectivity ratio is greater than 9.79.

As for `N#Cc1ccc2c(ccn2S(=O)(=O)c2ccccc2)c1`, in data set [1], the CC50 at 72 h is greater than 200 µg/mL. The EC50 in data set [2] was 3.23 µg/mL (≈ 11.4 µM). Moreover, in data set [3] (C8166 cells), the selectivity ratio was greater than 61.9.

Regarding `CC(=O)c1cn(S(=O)(=O)c2cccc([N+](=O)[O-])c2)c2cc(C)ccc12`, half-maximal cytotoxicity in data set [1] (CC50 at 72 h) was put at 125 µg/mL (≈ 349 µM). Also, the EC50 in data set [2] came out at 1.02 µg/mL (≈ 2.85 µM). For the same molecule, the selectivity ratio in data set [3] (C8166 cells) was determined as 122.

As for `CC(=O)c1cn(S(=O)(=O)c2ccc(C)cc2)c2ccc(C#N)cc12`, in data set [1], half-maximal cytotoxicity (CC50 at 72 h) was put at 147 µg/mL (≈ 435 µM). For the same molecule, in data set [2], the half-maximal effective concentration (EC50) came out at 76.9 µg/mL (≈ 227 µM). In data set [3] (C8166 cells), the selectivity ratio worked out at 1.91.

In the case of `CC(=O)c1cn(S(=O)(=O)c2ccc(Br)cc2)c2ccc(C#N)cc12`, the CC50 at 72 h in data set [1] is greater than 200 µg/mL. Besides, in data set [2], the EC50 was greater than 200 µg/mL.

`CC(=O)c1cn(S(=O)(=O)c2ccccc2)c2ccc(C#N)cc12` came in with a 50% cytotoxic concentration (CC50) at 72 h in data set [1] of 66.2 µg/mL (≈ 204 µM). Also, the EC50 in data set [2] amounted to 57.5 µg/mL (≈ 177 µM). For the same molecule, the selectivity ratio in data set [3] (C8166 cells) was found to be 1.21.

Molecule `CC(=O)c1cn(S(=O)(=O)c2ccc(Cl)cc2)c2ccc(C#N)cc12` gave a CC50 at 72 h in data set [1] of 65.2 µg/mL (≈ 182 µM). In addition, in data set [2], the EC50 turned out to be 54.4 µg/mL (≈ 152 µM). The selectivity ratio in data set [3] (C8166 cells) is 1.19.

For the molecule `O=S(=O)(c1ccccc1)n1ccc2ccccc21`, the midpoint of cytotoxicity in data set [1], the CC50 at 72 h, lay at 47.1 µg/mL (≈ 183 µM). In addition, in data set [2], the EC50 came to 0.93 µg/mL (≈ 3.61 µM). In data set [3] (C8166 cells), the selectivity ratio was 50.7.

Consider `Cc1cn([C@H]2C[C@H](N=[N+]=[N-])[C@@H](CO)O2)c(=O)[nH]c1=O` [ZIDOVUDINE], for which it took 1140 µg/mL (≈ 4260 µM) to reach half-maximal cytotoxicity in data set [1] (CC50 at 72 h). Also, the EC50 in data set [2] was determined as 0.00324 µg/mL (≈ 0.0121 µM). In data set [3], the selectivity ratio is 353000.
